Data from patent US12624050B2, “Three fused ring derivative-containing salt or crystal form and pharmaceutical composition thereof” (Shanghai Hansoh Biomedical Co., Ltd., priority 2019, dated 2026).

Experiments:
[1] = PK studies in animals of salt crystal forms, intragastric 30 mg/kg; format: in vivo; details: 0.5% HPMC K4M suspension; for exposure in rats (in words): 30 mg/kg; for AUC(0-inf) / AUC(0-t) / Cmax / Tmax / half-life / MRT inf: rat, in vivo, po, rats, 30 mg/kg (as free compound); for MRT inf: read-out: MRT0-∞
Protocol: 7.2.1 Crystal form A of mesylate salt, crystal form D of sulfate salt and crystal form A of ethanesulfonate salt of (S)-2-((2-((R)-4-(difluoromethyl)-2-oxothiazolidin-3-yl)-5,6-dihydrobenzo[f]imidazo[1,2-d][1,4]oxazepin-9-yl)amino)propionamide were evenly suspended in an aqueous solution containing 0.5% HPMC (hydroxypropyl methylcellulose) K4M, and then intragastrically administered to rats in duplicate at a dose of 30 mg/kg. The amount of the compound was all converted into the amount of the same compound (S)-2-((2-((R)-4-(difluoromethyl)-2-oxothiazolidin-3-yl)-5,6-dihydrobenzo[f]imidazo[1,2-d][1,4]oxazepin-9-yl)amino)propionamide.

[2] = Stability experiment of the solids (60°C, RH 95%, light), HPLC; format: physicochemical; details: light condition (5000 lx) for 10 days
Protocol: About 2 mg of crystal form A of mesylate salt, crystal form C of sulfate salt and crystal form A of ethanesulfonate salt of (S)-2-((2-((R)-4-(difluoromethyl)-2-oxothiazolidin-3-yl)-5,6-dihydrobenzo[f]imidazo[1,2-d][1,4]oxazepin-9-yl)amino)propionamide was placed in a sealed oven at 60° C., in an unsealed container at room temperature under RH 95% (saturated aqueous KNO3 solution) and in a light box (5000 lx±500 lx) and observed for 5 days and 10 days. The content of salt was determined by HPLC using the external standard method. Changes of related substance of salt in substances related to the salts were calculated by normalization of chromatography peak area.

[3] = Hygroscopicity experiment; format: physicochemical; details: for crystal form (XRPD pattern) after humidification and dehumidification: 1 cycle under 0 to 95% relative humidity; for hygroscopic weight gain / hygroscopicity (in words): RH 80%
Protocol: Crystal form A of mesylate salt, crystal form D of sulfate salt and crystal form A of ethanesulfonate salt of (S)-2-((2-((R)-4-(difluoromethyl)-2-oxothiazolidin-3-yl)-5,6-dihydrobenzo[f]imidazo[1,2-d][1,4]oxazepin-9-yl)amino)propionamide were placed in saturated water vapor with different relative humidity, so that the compound and water vapor reached a dynamic equilibrium, and the percentage of hygroscopic weight gain of the compound after the equilibrium was calculated.

[4] = Polymorphic screening experiment; format: physicochemical; details: slurrying, changing solvent and crystallization mode
Protocol: Organic solvents and water with a certain solubility was chosen to suspend the compound in the solvent system, and the mixture was stirred and slurried at room temperature for 1 week, and then centrifuged. The supernatant was discarded, and the solid was dried in vacuum (−0.1 Mpa) at 40° C. overnight. Then the XRPD of the solid was measured and compared with the XRPD of salt of the compound.

[5] = Solubility experiment in different media, thermodynamic solubility at 37°C; format: physicochemical; details: for solubility after salt formation compared with the free compound: 37°C; for solubility at 24 h: thermodynamic from solid, thermodynamic solubility
Protocol: About 2 mg of crystal form A of ethanesulfonate salt of (S)-2-((2-((R)-4-(difluoromethyl)-2-oxothiazolidin-3-yl)-5,6-dihydrobenzo[f]imidazo[1,2-d][1,4]oxazepin-9-yl)amino)propionamide was suspended in different media for 24 hours.

Compound	exposure in rats (in words) [1]	AUC(0-inf) [1] [ng·h/mL]	AUC(0-t) [1] [ng·h/mL]	Cmax [1] [ng/mL]	Tmax [1] [h]	half-life [1] [h]	MRT inf [1] [h]	increase of new impurity compared with 0 days [2] [%]	crystal form (XRPD pattern) after humidification and dehumidification [3]	hygroscopic weight gain [3] [%]	hygroscopicity (in words) [3]	further results
CS(=O)(=O)O.C[C@H](Nc1ccc2c(c1)OCCn1cc(N3C(=O)SC[C@H]3C(F)F)nc1-2)C(N)=O [crystal form A of mesylate salt, (S)-2-((2-((R)-4-(difluoromethyl)-2-oxothiazolidin-3-yl)-5,6-dihydrobenzo[f]imidazo[1,2-d][1,4]oxazepin-9-yl)amino)propionamide]	higher exposures	10200	9840	1180	1	3.54	6.52	0.523	the crystal form changed	3.6	had hygroscopicity	–
CCS(=O)(=O)O.C[C@H](Nc1ccc2c(c1)OCCn1cc(N3C(=O)SC[C@H]3C(F)F)nc1-2)C(N)=O [crystal form A of ethanesulfonate salt, (S)-2-((2-((R)-4-(difluoromethyl)-2-oxothiazolidin-3-yl)-5,6-dihydrobenzo[f]imidazo[1,2-d][1,4]oxazepin-9-yl)amino)propionamide]	higher exposures	10400	10000	1460	1	3.01	6.98	0.134	the crystal form did not change	0.207	slight hygroscopicity	crystal form obtained in polymorphic screening [4]: in crystal form A was obtained; solubility after salt formation compared with the free compound ([5]; media of pH4 to 8 buffer): slightly lower solubility; solubility at 24 h ([5]; medium of pH 1, simulated gastric fluid, medium pH 1, 37° C.): 9370 µg/mL; solubility at 24 h ([5]; medium of pH 2, simulated gastric fluid, medium pH 2, 37° C.): 974 µg/mL; solubility at 24 h ([5]; medium of pH 3, aqueous buffer, medium pH 3, 37° C.): 268 µg/mL; solubility at 24 h ([5]; medium of pH 4, aqueous buffer, medium pH 4, 37° C.): 49 µg/mL; solubility at 24 h ([5]; medium of pH 5, aqueous buffer, medium pH 5, 37° C.): 20 µg/mL; solubility at 24 h ([5]; medium of pH 6, aqueous buffer, medium pH 6, 37° C.): 5 µg/mL; solubility at 24 h ([5]; medium of pH 7, aqueous buffer, medium pH 7, 37° C.): 12 µg/mL; solubility at 24 h ([5]; medium of pH 8, aqueous buffer, medium pH 8, 37° C.): 14 µg/mL; solubility after salt formation compared with the free compound ([5]; other media, most obviously in water): increased the solubility; solubility at 24 h ([5]; medium Fa (fasted-state simulated intestinal fluid, FaSSIF), 37° C.): 44 µg/mL; solubility at 24 h ([5]; medium Fe (fed-state simulated intestinal fluid, FeSSIF), 37° C.): 163 µg/mL; solubility at 24 h ([5]; medium SGF (simulated gastric fluid), 37° C.): 1150 µg/mL; solubility at 24 h ([5]; medium water, 37° C.): 608 µg/mL
C[C@H](Nc1ccc2c(c1)OCCn1cc(N3C(=O)SC[C@H]3C(F)F)nc1-2)C(N)=O.O=S(=O)(O)O [crystal form C of sulfate salt, (S)-2-((2-((R)-4-(difluoromethyl)-2-oxothiazolidin-3-yl)-5,6-dihydrobenzo[f]imidazo[1,2-d][1,4]oxazepin-9-yl)amino)propionamide]	–	–	–	–	–	–	–	0.172	–	–	–	–
